# Source: ChEMBL document CHEMBL4393697, “Lipophilic efficient phenylthiazoles with potent undecaprenyl pyrophosphatase inhibitory activity” (Eur J Med Chem, 2019)
# Activity calls are given as the source filed them. The calls are words filed in the database; no cut-off is given here.
# System: Staphylococcus aureus
# Experiment: Antibacterial activity against Staphylococcus aureus NRS107 assessed as reduction in bacterial cell growth incubated for 18 to 20 hrs by broth microdilution method
# Type: functional
row,Compound,MIC [µg/mL]
1,C/C(=N\NC(=N)N)c1sc(-c2ccc(C#CC3(O)CCCCC3)cc2)nc1C,4

# System: Staphylococcus aureus
# Experiment: Antibacterial activity against methicillin resistant Staphylococcus aureus USA400 assessed as reduction in bacterial cell growth incubated for 18 to 20 hrs by broth microdilution method
# Type: functional
row,Compound,MIC [µg/mL]
1,C/C(=N\NC(=N)N)c1sc(-c2ccc(C#CC3(O)CCCCC3)cc2)nc1C,4

# System: Staphylococcus aureus
# Experiment: Antibacterial activity against methicillin-resistant Staphylococcus aureus USA300 assessed as reduction in bacterial cell growth incubated for 18 to 20 hrs by broth microdilution method
# Type: functional
row,Compound,MIC [µg/mL]
1,C/C(=N\NC(=N)N)c1sc(-c2ccc(C#CC3(O)CCCCC3)cc2)nc1C,4

# System: Staphylococcus aureus
# Experiment: Antibacterial activity against methicillin resistant Staphylococcus aureus NRS119 assessed as reduction in bacterial cell growth incubated for 18 to 20 hrs by broth microdilution method
# Type: functional
row,Compound,MIC [µg/mL]
1,C/C(=N\NC(=N)N)c1sc(-c2ccc(C#CC3(O)CCCCC3)cc2)nc1C,2

# System: Staphylococcus aureus
# Experiment: Antibacterial activity against vancomycin resistant Staphylococcus aureus VRS10 assessed as reduction in bacterial cell growth incubated for 18 to 20 hrs by broth microdilution method
# Type: functional
row,Compound,MIC [µg/mL]
1,C/C(=N\NC(=N)N)c1sc(-c2ccc(C#CC3(O)CCCCC3)cc2)nc1C,2

# System: Staphylococcus aureus
# Experiment: Antibacterial activity against Staphylococcus aureus ATCC 6538 assessed as reduction in bacterial cell growth incubated for 18 to 20 hrs by broth microdilution method
# Type: functional
row,Compound,MIC [µg/mL]
1,C/C(=N\NC(=N)N)c1sc(-c2ccc(C#CC3(O)CCCCC3)cc2)nc1C,2

# System: Staphylococcus epidermidis
# Experiment: Antibacterial activity against methicillin resistant Staphylococcus epidermidis NRS101 assessed as reduction in bacterial cell growth incubated for 18 to 20 hrs by broth microdilution method
# Type: functional
row,Compound,MIC [µg/mL]
1,C/C(=N\NC(=N)N)c1sc(-c2ccc(C#CC3(O)CCCCC3)cc2)nc1C,4

# System: Staphylococcus aureus
# Experiment: Antibacterial activity against vancomycin resistant Staphylococcus aureus VRS12 assessed as reduction in bacterial cell growth incubated for 18 to 20 hrs by broth microdilution method
# Type: functional
row,Compound,MIC [µg/mL]
1,C/C(=N\NC(=N)N)c1sc(-c2ccc(C#CC3(O)CCCCC3)cc2)nc1C,4

# System: Staphylococcus aureus
# Experiment: Antibacterial activity against vancomycin resistant Staphylococcus aureus VRS11a assessed as reduction in bacterial cell growth incubated for 18 to 20 hrs by broth microdilution method
# Type: functional
row,Compound,MIC [µg/mL]
1,C/C(=N\NC(=N)N)c1sc(-c2ccc(C#CC3(O)CCCCC3)cc2)nc1C,1

# System: Staphylococcus aureus
# Experiment: Antibacterial activity against intracellular methicillin resistant Staphylococcus aureus USA400 infected in mouse J774 cells assessed as log10 reduction of viable bacterial cells incubated for 24 hrs followed by re-plating on tryptic soy agar plates at 37 degC for 18 to 22 hrs by broth microdilution assay
# Type: functional
row,Compound,Activity call
1,C/C(=N\NC(=N)N)c1sc(-c2ccc(C#CC3(O)CCCCC3)cc2)nc1C,Active

# System: Enterococcus faecalis
# Experiment: Antibacterial activity against vancomycin resistant Enterococcus faecalis ATCC 51299 assessed as reduction in bacterial cell growth incubated for 18 to 20 hrs by broth microdilution method
# Type: functional
row,Compound,MIC [µg/mL]
1,C/C(=N\NC(=N)N)c1sc(-c2ccc(C#CC3(O)CCCCC3)cc2)nc1C,8

# System: Enterococcus faecium
# Experiment: Antibacterial activity against vancomycin resistant Enterococcus faecium ATCC 700221 assessed as reduction in bacterial cell growth incubated for 18 to 20 hrs by broth microdilution method
# Type: functional
row,Compound,MIC [µg/mL]
1,C/C(=N\NC(=N)N)c1sc(-c2ccc(C#CC3(O)CCCCC3)cc2)nc1C,1

# System: Listeria monocytogenes
# Experiment: Antibacterial activity against Listeria monocytogenes ATCC 19111 assessed as reduction in bacterial cell growth incubated for 18 to 20 hrs by broth microdilution method
# Type: functional
row,Compound,MIC [µg/mL]
1,C/C(=N\NC(=N)N)c1sc(-c2ccc(C#CC3(O)CCCCC3)cc2)nc1C,4

# System: Streptococcus pneumoniae
# Experiment: Antibacterial activity against Cephalosporin resistant Streptococcus pneumoniae ATCC 51916 assessed as reduction in bacterial cell growth incubated for 18 to 20 hrs by broth microdilution method
# Type: functional
row,Compound,MIC [µg/mL]
1,C/C(=N\NC(=N)N)c1sc(-c2ccc(C#CC3(O)CCCCC3)cc2)nc1C,8

# System: Streptococcus pneumoniae
# Experiment: Antibacterial activity against Methicillin resistant Streptococcus pneumoniae ATCC 700677 assessed as reduction in bacterial cell growth incubated for 18 to 20 hrs by broth microdilution method
# Type: functional
row,Compound,MIC [µg/mL]
1,C/C(=N\NC(=N)N)c1sc(-c2ccc(C#CC3(O)CCCCC3)cc2)nc1C,4

# System: Staphylococcus aureus
# Experiment: Bactericidal activity against Staphylococcus aureus ATCC 6538 assessed as reduction in bacterial cell growth incubated for 18 to 20 hrs followed by re-plating on tryptic soy agar plates at 37 degC for 18 hrs by broth microdilution assay
# Type: functional
row,Compound,MBC [µg/mL]
1,C/C(=N\NC(=N)N)c1sc(-c2ccc(C#CC3(O)CCCCC3)cc2)nc1C,4

# System: Staphylococcus aureus
# Experiment: Bactericidal activity against Staphylococcus aureus NRS107 assessed as reduction in bacterial cell growth incubated for 18 to 20 hrs followed by re-plating on tryptic soy agar plates at 37 degC for 18 hrs by broth microdilution assay
# Type: functional
row,Compound,MBC [µg/mL]
1,C/C(=N\NC(=N)N)c1sc(-c2ccc(C#CC3(O)CCCCC3)cc2)nc1C,8
